Experimental data published in paper PMC8706149 (International Journal of Molecular Sciences, 2021).
≈ marks a conversion by molar mass, not a printed value. Read-outs that look alike come from different tables or passages of the source. Marks after values point to notes of the source that are not given here. Bridge positions count the residues as written; N and C are the ends. Square brackets hold non-standard residues; d marks the D form. Peptide text beside a SMILES is read from it. * marks the point of attachment. X1 = CC[C@H](C)CCCCC(=O)*; Dab = NCC[C@H](N)C(=O)O

Tests used:
[1] = tested on: Bacillus globigii TNO BMO13; experiment: MIC, broth microdilution; type: cell-based; conditions: Bacillus subtilis, TNOBMO13, read-out: MIC (µg/mL) Bacillus globigii TNO BMO13
Method: (§1) All the labeled peptide after purification were lyophilized and dissolved in water. Purity was veri-fi e d by RP-HPLC on C18 column . Pepti de i dentity was assessed by mass spectrometry anal yses (Supplementary Methods, section S4; Table S1).
(§2) S6. Antimicrobial activity assay
(§3) MIC (Minimum Inhibitory Concentration) analyses were performed by broth microdilution method for antimicrobial peptides previously described wi th mi nor modi ficati ons. In detai l s, assays were carried out in Nutrient Broth 0.5x (Difco, Detroit, MI, US A ) usi ng st e r i le 96-well polypropylene mi-croti ter pl ates (cat. 3879, C ostar C orp., C ambri dge, MA , US A ). Bacterial strains were grown in Luria-Bertani (LB) medium overnight at 37°C and then diluted in Nutrient Broth at a final concentration of ~5x10^5 CFU/mL per well. Twofold serial dilutions of peptides were carried out in the test wells […]
(§4) Plates were incubated overnight at 37°C. MIC value was taken as the lowest concentration at which growth was inhibited. Three independent experiments we r e performed for each MIC value. […] MIC values were measured on Gram-negative ( E scherichia coli ATCC 25922) and Gram-po si t i ve st r ains (Sta phyl o co ccus a ure us ATCC 6538P and Bacillus globigii TNO BMO13) . […]

[2] = Photostability under constant excitation; type: physicochemical; conditions: 60 min constant excitation at maximum absorption (Figure S3)
Description: As comparative control, we used the very photostable fluorophore PyMPO [33] by treating PyMPO-(C)GKY20 in the same conditions.

[3] = cited from earlier work; for pKa of the phenolic group of luciferin: ground state
Description: Excited states are indicated by an asterisk. (C) Condensation reaction between 6-substituted 2-cyanobenzothiazoles and cysteine (free or as N-terminal residue of a peptide). R1 and R2 can be a wide variety of alkyl and acyl groups.

[4] = tested on: Escherichia coli ATCC 25922; type: cell-based; conditions: positive control antibiotic; Nutrient Broth 0.5x, overnight 37°C
Method: as §1, §2, §3, §4

## CN[C@H](CC(C)C)C(=O)N[C@H]1C(=O)N[C@@H](CC(N)=O)C(=O)N[C@H]2C(=O)N[C@H]3C(=O)N[C@H](C(=O)N[C@H](C(=O)O)c4cc(O)cc(O)c4-c4cc3ccc4O)[C@H](O)c3ccc(c(Cl)c3)Oc3cc2cc(c3O[C@@H]2O[C@H](CO)[C@@H](O)[C@H](O)[C@H]2O[C@H]2C[C@](C)(N)[C@H](O)[C@H](C)O2)Oc2ccc(cc2Cl)[C@H]1O [Vancomycin, vancomycin]
[1]
  MIC: 2 µg/mL (≈ 1.38 µM)

## 1-[2-(maleimido)ethyl]-4-[5-(4-methoxyphenyl)-2-oxazolyl]pyridinium-labeled GKY20 [PyMPO-(C)GKY20]
[2]
  loss of initial fluorescence: 43%

## O=C(O)[C@H]1CSC(c2nc3ccc(O)cc3s2)=N1 [Free Luc, luciferin]
[3]
  pKa of the phenolic group of luciferin: 8.70 ^b
[3]; listed as LUC-OH
  pKa of the phenolic group of luciferin: 8.7
[3]; listed as Luc
  pKa of the phenolic group of luciferin: ≈ 8.7
[3]; photoacid, excited state
  pKa of light-induced dissociation (excited state) of luciferin: < 1

## CC[C@H](C)CCCCC(=O)N[C@@H](CCN)C(=O)N[C@H](C(=O)N[C@@H](CCN)C(=O)N[C@H]1CCNC(=O)[C@H]([C@@H](C)O)NC(=O)[C@H](CCN)NC(=O)[C@H](CCN)NC(=O)[C@H](CC(C)C)NC(=O)[C@@H](Cc2ccccc2)NC(=O)[C@H](CCN)NC1=O)[C@@H](C)O [Polymyxin B, polymyxin B] (X1-[Dab]T[Dab][Dab][Dab][dF]L[Dab][Dab]T; lactam 4-C (inferred); N-terminus assumed)
[4]
  MIC (µg/mL) Escherichia coli 25922 ATCC: 0.5 µg/mL (≈ 0.415 µM)
